Test results from ChEMBL document CHEMBL1159282, “Secondary Mold Metabolites, Part 49. Isolation, Structural Elucidation, and Biomimetic Synthesis of Trametol, a New 1-Arylpropane-1,2-diol Produced by the Fungus Trametes sp” (J Nat Prod, 1995).
The source made the active and inactive calls.

How the values were obtained:
Type in all cases: functional, organism-based
Escherichia coli = assay: Antimicrobial activity against Escherichia coli at 150 ug/disk
Saccharomyces cerevisiae = assay: Antimicrobial activity against Saccharomyces cerevisiae at 150 ug/disk
Bacillus subtilis = assay: Antimicrobial activity against Bacillus subtilis at 150 ug/disk
Bacillus cereus = assay: Antimicrobial activity against Bacillus cereus at 150 ug/disk
[1] = test system: Cladosporium cladosporioides; assay: Antimicrobial activity against Cladosporium cladosporioides at 150 ug/disk

Measured: Activity

COc1ccc([C@@H](O)[C@H](C)O)cc1Cl
inactive: all assays above
